Test results as given in patent US10307413B2, “Tetrahydro- and dihydro-isoquinoline PRMT5 inhibitors and uses thereof” (Epizyme, Inc., priority 2013, dated 2019).

Legend:
[1] = tested on: symmetric di-methyl arginine in Z-138 cells; assay: Z-138 Methylation Assay (In Cell Western for symmetric di-methyl arginine and DNA content); format: cell-based; settings: Homo sapiens, read-out: ICW EC50
Source text: [formula] [formula] Where top and bottom are the normally allowed to float, but may be fixed at 100 or 0 respectively in a 3-parameter fit. The Hill Coefficient normally allowed to float but may also be fixed at 1 in a 3-parameter fit. Y is the % inhibition and X is the compound concentration.
RPMI/Glutamax medium, penicillin-streptomycin, heat inactivated fetal bovine serum, and D-PBS were purchased from Life Technologies, Grand Island, N.Y., USA. Odyssey blocking buffer, 800CW goat anti-rabbit IgG (H+L) antibody, and Licor Odyssey infrared scanner were purchased from Licor Biosciences, Lincoln, Nebr., USA. Symmetric di-methyl arginine antibody was purchased from EMD Millipore, Billerica, Mass., USA. 16% Paraformaldehyde was purchased from Electron Microscopy Sciences, Hatfield, Pa., USA.
Cell Treatment, in Cell Western (ICW) for Detection of Symmetric Di-Methyl Arginine and DNA Content.
Z-138 cells were seeded in assay medium at a concentration of 50,000 cells per mL to a 384-well cell culture plate with 50 μL per well. Compound (100 nL) from 384 well source plates was added directly to 384 well cell plate. Plates were incubated at 37° C., 5% CO2 for 96 hours. […] Plates were incubated at room temperature for 30 minutes then incubated at 37° C., 5% CO2 for 5 hours. After the incubation, 40 μL per well of 8% paraformaldehyde in PBS (16% paraformaldahyde was diluted to 8% in PBS) was added to each plate and incubated for 30 minutes. […] Next 30 μL per well of Odyssey blocking buffer were added to each plate and incubated 1 hour at room temperature. Blocking buffer was removed and 20 μL per well of primary antibody was added (symmetric di-methyl arginine diluted 1:100 in Odyssey buffer with 0.1% Tween 20 (v/v)) and plates were incubated overnight (16 hours) at 4° C. Plates were washed 5 times with 100 μL per well of wash buffer. Next 20 μL per well of secondary antibody was added (1:200 800CW goat anti-rabbit IgG (H+L) antibody, 1:1000 DRAQ5 (Biostatus limited) in Odyssey buffer with 0.1% Tween 20 (v/v)) and incubated for 1 hour at room temperature. The plates were washed 5 times with 100 μL per well wash buffer then 1 time with 100 μL per well of water. Plates were allowed to dry at room temperature then imaged on the Licor Odyssey machine which measures integrated intensity at 700 nm and 800 nm wavelengths. Both 700 and 800 channels were scanned.
First, the ratio for each well was determined by:
Each plate included fourteen control wells of DMSO only treatment (minimum inhibition) as well as fourteen control wells for maximum inhibition treated with 3 μM of a reference compound (Background wells). The average of the ratio values for each control type was calculated and used to determine the percent inhibition for each test well in the plate. Reference compound was serially diluted three-fold in DMSO for a total of nine test concentrations, beginning at 3 μM. Percent inhibition was determined and IC50 curves were generated using triplicate wells per concentration of compound. Percent Inhibition=100−

Z-138 cell line = assay: Z-138 Proliferation Assay (Cell Titer Glo, 5 days); format: cell-based; settings: Homo sapiens, 120 h; Z-138 cells, 5 days; read-out: Proliferation EC50
Source text: RPMI/Glutamax medium, penicillin-streptomycin, heat inactivated fetal bovine serum were purchased from Life Technologies, Grand Island, N.Y., USA. V-bottom polypropylene 384-well plates were purchased from Greiner Bio-One, Monroe, N.C., USA. Cell culture 384-well white opaque plates were purchased from Perkin Elmer, Waltham, Mass., USA. Cell-Titer Glo® was purchased from Promega Corporation, Madison, Wis., USA. SpectraMax M5 plate reader was purchased from Molecular Devices LLC, Sunnyvale, Calif., USA.
A compound source plate was prepared by performing triplicate nine-point 3-fold serial dilutions in DMSO, beginning at 10 mM (final top concentration of compound in the assay was 20 μM and the DMSO was 0.2%). A 100 nL aliquot from the compound stock plate was added to its respective well in the cell plate. […] After addition of compounds, assay plates were incubated for 5 days at 37° C., 5% CO2, relative humidity >90%.
Cell viability was measured by quantitation of ATP present in the cell cultures, adding […] of Cell Titer Glo® reagent to the cell plates. Luminescence was read in the SpectraMax M5 microplate reader. The concentration of compound inhibiting cell viability by 50% was determined using a 4-parametric fit of the normalized dose response curves.

| SMILES | EC50 [1] | EC50 (Z-138 cell line) |
| --- | --- | --- |
| O=C(NC[C@H](O)CN1CCc2ccccc2C1)Nc1ccccc1 [Compound 5] | 0.101 to 1 µM | > 20 µM |
| O=C(NC[C@H](O)CN1CCc2ccccc2C1)c1ccnc(NC2CCOC2)c1 (some centres unmarked) [Compound 306] | < 0.1 µM | < 0.1 µM |
| CC(=O)NCCN1CCN(Cc2cccc(C(=O)NCC(O)CN3CCc4ccccc4C3)c2)CC1 (centres unmarked) [Compound 156] | 0.101 to 1 µM | 1 to 10 µM |
| CS(=O)(=O)Nc1cccc(C(=O)NCC(O)CN2CCc3ccccc3C2)c1 (centres unmarked) [Compound 24] | 0.101 to 1 µM | 1 to 10 µM |
| O=C(NC[C@H](O)CN1CCc2ccccc2C1)c1ccnc(NCC2CNCCO2)c1 (some centres unmarked) [Compound 238] | 0.101 to 1 µM | 10 to 50 µM |
| O=C(NCC(O)CN1CCc2ccccc2C1)c1ccc(NC2CCN(CC(F)(F)F)CC2)cc1 (centres unmarked) [Compound 128] | < 0.1 µM | 1 to 10 µM |
| CC(=O)N1CCC(Nc2ccc(C(=O)NCC(O)CN3CCc4ccccc4C3)cc2)CC1 (centres unmarked) [Compound 127] | < 0.1 µM | 1 to 10 µM |
| CC(C)N1CCC(Nc2cccc(C(=O)NCC(O)CN3CCc4ccccc4C3)c2)C1 (centres unmarked) [Compound 101] | < 0.1 µM | 10 to 50 µM |
| O=C(NC[C@H](O)CN1CCc2ccccc2C1)c1cccc(NC2CCN(CC(F)(F)F)CC2)c1 [Compound 217] | < 0.1 µM | 0.101 to 1 µM |
| CC(=O)N1CC[C@H](Nc2cccc(C(=O)NC[C@H](O)CN3CCc4ccccc4C3)c2)C1 [Compound 266] | < 0.1 µM | 0.101 to 1 µM |
| CN(c1ccc(C(=O)NCC(O)CN2CCc3ccccc3C2)cc1)C1CCOC1 (centres unmarked) [Compound 144] | < 0.1 µM | 1 to 10 µM |
| O=C(NCC(O)CN1CCc2ccccc2C1)c1cccc(C2CCNC2)c1 (centres unmarked) [Compound 37] | 0.101 to 1 µM | > 20 µM |
| O=C(NC[C@H](O)CN1CCc2ccccc2C1)c1cc(NC2CCOCC2)ncn1 [Compound 193] | < 0.1 µM | 0.101 to 1 µM |
| CN1CCC(Oc2ccc(C(=O)NCC(O)CN3CCc4ccccc4C3)cc2)C1 (centres unmarked) [Compound 177] | < 0.1 µM | 1 to 10 µM |
| CS(=O)(=O)N1CCC(Oc2cc(C(=O)NC[C@H](O)CN3CCc4ccccc4C3)ncn2)CC1 [Compound 286] | < 0.1 µM | 1 to 10 µM |
| O=C(NC[C@H](O)CN1CCc2ccccc2C1)c1cc(NC2COC2)ncn1 [Compound 166, (S)—N-(3-(3,4-dihydroisoquinolin-2(1H)-yl)-2-hydroxypropyl)-6-(oxetan-3-ylamino)pyrimidine-4-carboxamide] | < 0.1 µM | 0.101 to 1 µM |
| CCN1CCN(Cc2cccc(C(=O)NCC(O)CN3CCc4ccccc4C3)c2)CC1 (centres unmarked) [Compound 90] | 0.101 to 1 µM | 10 to 50 µM |
| CNC(=O)CN1CCN(Cc2cccc(C(=O)NCC(O)CN3CCc4ccccc4C3)c2)CC1 (centres unmarked) [Compound 173] | < 0.1 µM | 1 to 10 µM |
| CN1CCN(Cc2ccc(C(=O)NCC(O)CN3CCc4ccccc4C3)cc2)CC1 (centres unmarked) [Compound 163] | < 0.1 µM | 1 to 10 µM |
| NC(=O)CCCN1CCN(Cc2cccc(C(=O)NCC(O)CN3CCc4ccccc4C3)c2)CC1 (centres unmarked) [Compound 159] | 0.101 to 1 µM | 1 to 10 µM |
| O=C(NCC(O)CN1CCc2ccccc2C1)c1cccc(N2CCOCC2)c1 (centres unmarked) [Compound 14, N-(3-(3,4-dihydroisoquinolin-2(1H)-yl)-2-hydroxypropyl)-3-morpholinobenzamide] | 0.101 to 1 µM | 1 to 10 µM |
| O=C(NC[C@H](O)CN1CCc2ccccc2C1)c1cc(NC2CCN(CC(F)(F)F)C2)ncn1 (some centres unmarked) [Compound 182] | < 0.1 µM | 1 to 10 µM |
| O=C(NCC(O)CN1CCc2ccccc2C1)c1cccc(CN2CCN(CCO)CC2)c1 (centres unmarked) [Compound 113] | 0.101 to 1 µM | 10 to 50 µM |

| SMILES | EC50 [1] | EC50 (Z-138 cell line) |
| --- | --- | --- |
| Cc1cnc(NC2CCOCC2)cc1C(=O)NC[C@H](O)CN1CCc2ccccc2C1 [Compound 307] | < 0.1 µM | 0.101 to 1 µM |
| CS(=O)(=O)N1CCC(Nc2cncc(C(=O)NC[C@H](O)CN3CCc4ccccc4C3)c2)CC1 [Compound 301] | < 0.1 µM | 0.101 to 1 µM |
| O=C(NC[C@H](O)CN1CCc2ccccc2C1)c1ccnc(NC2CCCCC2)c1 [Compound 335] | < 0.1 µM | < 0.1 µM |
| O=C(NCC(O)CN1CCc2ccccc2C1)c1cccc(N2CCNCC2)c1 (centres unmarked) [Compound 35, N-(3-(3,4-dihydroisoquinolin-2(1H)-yl)-2-hydroxypropyl)-3-(piperazin-1-yl)benzamide] | 0.101 to 1 µM | 10 to 50 µM |
| CN1CCC(Oc2cc(C(=O)NC[C@H](O)CN3CCc4ccccc4C3)ccn2)CC1 [Compound 202] | < 0.1 µM | 1 to 10 µM |
| CN(C)CCNc1cc(C(=O)NC[C@H](O)CN2CCc3ccccc3C2)ccn1 [Compound 214] | < 0.1 µM | 1 to 10 µM |
| CN(C[C@H](O)CN1CCc2ccccc2C1)C(=O)c1cc(NC2CCOCC2)ncn1 [Compound 232] | 0.101 to 1 µM | 1 to 10 µM |
| O=C(NCC(O)CN1CCc2ccccc2C1)c1ccnc(NC2CCOCC2)c1 (centres unmarked) [Compound 74] | < 0.1 µM | 0.101 to 1 µM |
| O=C(NC[C@@H](O)CN1CCc2ccccc2C1)c1cccc(NC2CCOCC2)c1 [Compound 43] | 0.101 to 1 µM | 1 to 10 µM |
| O=C(NC[C@H](O)CN1CCc2ccccc2C1)c1ccc2ncccc2c1 [Compound 220] | < 0.1 µM | 0.101 to 1 µM |
| O=C(NC[C@H](O)CN1CCc2ccccc2C1)c1ccnc(NCC2CCNCC2)c1 [Compound 235] | 0.101 to 1 µM | > 20 µM |
| O=C(NCC(O)CN1CCc2ccccc2C1)c1ccc(NC2CCNCC2)cc1 (centres unmarked) [Compound 138] | 0.101 to 1 µM | 10 to 50 µM |
| O=C(NC[C@H](O)CN1CCc2ccccc2C1)c1cncc(NC2CCNC2)c1 (some centres unmarked) [Compound 259] | 0.101 to 1 µM | > 20 µM |
| NC(=O)CN1CCN(Cc2cccc(C(=O)NCC(O)CN3CCc4ccccc4C3)c2)CC1 (centres unmarked) [Compound 172] | < 0.1 µM | 1 to 10 µM |
| O=C(NC[C@H](O)CN1CCc2ccccc2C1)c1ccnc(NCC2CCCNC2)c1 (some centres unmarked) [Compound 236] | 0.101 to 1 µM | 1 to 10 µM |
| O=C(NC[C@H](O)CN1CCc2ccccc2C1)c1cncc(NC2CCOC2)c1 (some centres unmarked) [Compound 211] | < 0.1 µM | < 0.1 µM |
| CN1CCOC(CNc2cc(C(=O)NC[C@H](O)CN3CCc4ccccc4C3)ccn2)C1 (some centres unmarked) [Compound 265] | 0.101 to 1 µM | 1 to 10 µM |
| CN1CCC(Oc2cncc(C(=O)NC[C@H](O)CN3CCc4ccccc4C3)c2)CC1 [Compound 288] | < 0.1 µM | < 0.1 µM |
| O=C(NCC(O)CN1CCc2ccccc2C1)c1cccc(NC2CCN(CC(F)(F)F)CC2)c1 (centres unmarked) [Compound 126] | < 0.1 µM | 1 to 10 µM |
| O=C(NCC(O)CN1CCc2ccccc2C1)c1cccc(NC2CCOCC2)c1F (centres unmarked) [Compound 79] | < 0.1 µM | 0.101 to 1 µM |
| CC(=O)N1CCC(Nc2cc(C(=O)NC[C@H](O)CN3CCc4ccccc4C3)ncn2)C1 (some centres unmarked) [Compound 210] | < 0.1 µM | 0.101 to 1 µM |
| CN(C)CCOc1cc(C(=O)NC[C@H](O)CN2CCc3ccccc3C2)ccn1 [Compound 234] | < 0.1 µM | 1 to 10 µM |
| CCN(c1cccc(C(=O)NCC(O)CN2CCc3ccccc3C2)c1C)C1CCOCC1 (centres unmarked) [Compound 41] | < 0.1 µM | 1 to 10 µM |
